In patent US12134620B2 (ARAXES PHARMA LLC, priority 2018, dated 2024):

Target: T1, KRAS G12C 1-169, his-tagged protein, GDP-loaded (Homo sapiens, UniProt P01116, G12C)
T1 construct: KRAS G12C 1-169, his-tagged protein, GDP-loaded; His tag
Assay: Biochemical assay: covalent modification of KRAS G12C, analysed by mass spectrometry (RapidFire/TOF or Q-Exactive); further: time not given here
Type: binding
Conditions: Modification activity, modification percentage from MS peak intensities
How it was run: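 GDP-loaded His-tagged KRAS G12C 1-169 (2 μM or 0.5 μM in 20 mM Hepes, 150 mM NaCl, 1 mM MgCl2) reacted with compound at 32 μM or 8 μM final (2% DMSO) for a set time, then quenched with formic acid. Percent covalent modification from deconvoluted intact-protein MS peak intensities (RapidFire/TOF or LC-Q Exactive).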

SMILES | Binding %
C=CC(=O)N1CC2(CCN(c3cncc(-c4c(C)ccc5[nH]ncc45)c3C#N)CC2)C1 [Compound I-263, 3-(2-acryloyl-2,7-diazaspiro[3.5]nonan-7-yl)-5-(5-methyl-1H-indazol-4-yl)isonicotinonitrile] | + (+ indicates binding activity greater than 0% and up to 50%)
C=CC(=O)N1CC2(CCN(c3cncc(-c4c(C)ccc5cnn(C)c45)c3C#N)C2)C1 [Compound I-264, 3-(2-acryloyl-2,6-diazaspiro[3.4]octan-6-yl)-5-(1,6-dimethyl-1H-indazol-7-yl)isonicotinonitrile] | ++ (++ indicates binding activity from 50 to 85%)
C=CC(=O)N1CC2(CCN(c3cncc(-c4c(C)ccc5cnn(C)c45)c3C#N)CC2)C1 [Compound I-265, 3-(2-acryloyl-2,7-diazaspiro[3.5]nonan-7-yl)-5-(1,6-dimethyl-1H-indazol-7-yl)isonicotinonitrile] | + (+ indicates binding activity greater than 0% and up to 50%)
C/C=C/C(=O)N1CC2(CCN(c3ncnc(-c4c(C)ccc5[nH]ncc45)c3C#N)C2)C1 [Compound I-266, (E)-4-(2-(but-2-enoyl)-2,6-diazaspiro[3.4]octan-6-yl)-6-(5-methyl-1 1H-indazol-4-yl)pyrimidine-5-carbonitrile] | + (+ indicates binding activity greater than 0% and up to 50%)
C=CC(=O)N1CC2(CCN(c3nccc(-c4c(C)ccc5[nH]ncc45)c3C#N)C2)C1 [Compound I-267, 2-(2-acryloyl-2,6-diazaspiro[3.4]octan-6-yl)-4-(5-methyl-1H-indazol-4-yl)nicotinonitrile] | + (+ indicates binding activity greater than 0% and up to 50%)
C#Cc1c(-c2c(C)ccc3[nH]ncc23)ncnc1N1CCC2(CN(C(=O)C=C)C2)C1 [Compound I-268, 1-(6-(5-ethynyl-6-(5-methyl-1H-indazol-4-yl)pyrimidin-4-yl)-2,6-diazaspiro[3.4]octan-2-yl)prop-2-en-1-one] | + (+ indicates binding activity greater than 0% and up to 50%)
C=CC(=O)N1CC2(CCN(c3cncc(-c4c(O)cccc4F)c3C#N)C2)C1 [Compound I-269, 3-(2-acryloyl-2,6-diazaspiro[3.4]octan-6-yl)-5-(2-fluoro-6-hydroxyphenyl)isoni-cotinonitrile] | + (+ indicates binding activity greater than 0% and up to 50%)
CC#CC(=O)N1CC2(CCN(c3cncc(-c4c(O)cccc4F)c3C#N)C2)C1 [Compound I-270, 3-(2-(but-2-ynoyl)-2,6-diazaspiro[3.4]octan-6-yl)-5-(2-fluoro-6-hydroxyphenyl)isoni-cotinonitrile] | + (+ indicates binding activity greater than 0% and up to 50%)
CC#CC(=O)N1CC2(CCN(c3cncc(-c4c(C)ccc5cnn(C)c45)c3C#N)C2)C1 [Compound I-271, 3-(2-(but-2-ynoyl)-2,6-diazaspiro[3.4]octan-6-yl)-5-(1,6-dimethyl-1H-indazol-7-yl)isonicotinonitrile] | + (+ indicates binding activity greater than 0% and up to 50%)
CC#CC(=O)N1CC2(CCN(c3cncc(-c4c(C)ccc5[nH]ncc45)c3C#N)C2)C1 [Compound I-272, 3-(2-(but-2-ynoyl)-2,6-diazaspiro[3.4]octan-6-yl)-5-(5-methyl-1H-indazol-4-yl)isonicotinonitrile] | + (+ indicates binding activity greater than 0% and up to 50%)
C=CC(=O)N1CC2(CC(=O)N(c3ncnc(-c4c(C)ccc5[nH]ncc45)c3C#N)C2)C1 [Compound I-273, 4-(2-acryloyl-7-oxo-2,6-diazaspiro[3.4]octan-6-yl)-6-(5-methyl-1H-indazol-4-yl)pyrimidine-5-carbonitrile] | + (+ indicates binding activity greater than 0% and up to 50%)
C=CC(=O)N1CC2(CCN(c3ccnc(-c4c(C)ccc5[nH]ncc45)n3)C2)C1 [Compound I-274, 1-(6-(2-(5-methyl-1H-indazol-4-yl)pyrimidin-4-yl)-2,6-diazaspiro[3.4]octan-2-yl)prop-2-en-1-one] | + (+ indicates binding activity greater than 0% and up to 50%)
C=CC(=O)N1CC2(CCN(c3nccc(-c4c(C)ccc5[nH]ncc45)n3)C2)C1 [Compound I-275, 1-(6-(4-(5-methyl-1H-indazol-4-yl)pyrimidin-2-yl)-2,6-diazaspiro[3.4]octan-2-yl)prop-2-en-1-one] | + (+ indicates binding activity greater than 0% and up to 50%)
C=CC(=O)N1CC2(CCN(c3cncc(-c4c(C)ccc5[nH]nc(N)c45)c3C#N)C2)C1 [Compound I-277, 3-(2-acryloyl-2,6-diazaspiro[3.4]octan-6-yl)-5-(3-amino-5-methyl-1H-indazol-4-yl)isonicotinonitrile] | ++ (++ indicates binding activity from 50 to 85%)
CC#CC(=O)N1CC2(CCN(c3cncc(-c4c(C)ccc5[nH]nc(N)c45)c3C#N)C2)C1 [Compound I-278, 3-(3-amino-5-methyl-1H-indazol-4-yl)-5-(2-(but-2-ynoyl)-2,6-diazaspiro[3.4]octan-6-yl)isonicotinonitrile] | + (+ indicates binding activity greater than 0% and up to 50%)
Cc1ccc2[nH]ncc2c1-c1cncc(N2CCC3(CN(C(=O)/C=C/CN(C)C)C3)C2)c1C#N [Compound I-279, (E)-3-(2-(4-(dimethylamino)but-2-enoyl)-2,6-diazaspiro[3.4]octan-6-yl)-5-(5-methyl-1H-indazol-4-yl)isonicotinonitrile] | + (+ indicates binding activity greater than 0% and up to 50%)
C=CC(=O)N1CC2(CCN(c3ncnc(-c4c(C)ccc5[nH]ncc45)n3)C2)C1 [Compound I-280, 1-(6-(4-(5-methyl-1H-indazol-4-yl)-1,3,5-triazin-2-yl)-2,6-diazaspiro[3.4]octan-2-yl)prop-2-en-1-one] | + (+ indicates binding activity greater than 0% and up to 50%)
C=CC(=O)N1CC2(CCN(c3ncnc(-c4c(C)ccc5[nH]ncc45)c3C#N)CC2)C1C(C)C (stereo not drawn) [Compound I-281, 4-(2-acryloyl-1-isopropyl-2,7-diazaspiro[3.5]nonan-7-yl)-6-(5-methyl-1H-indazol-4-yl)pyrimidine-5-carbonitrile] | + (+ indicates binding activity greater than 0% and up to 50%)
